Experiment: Accelerated stability of SAMe salts (ICH guidelines, HPLC)
Type: physicochemical
Conditions: 40-45° C. with 70-75% Relative Humidity
Method: Assessment of stability of the above SAMe salts has been done as per the ICH guidelines at 40-45° C. with 70-75% Relative Humidity and an improved HPLC method has been employed which resolves all the impurities formed on degrading SAMe (Table I). This method of HPLC analysis is the best method known so far to study stability of SAMe and has been validated as per the ICH guidelines. The details of the HPLC method followed and the accelerated stability report are as under:
Column=YMC-ODS-A, 4.6 mm×25 cm, C-18, 5 micron
Buffer=A mixture of 0.02 M citric acid & 0.01 M sodium dihydrogen orthophosphate
Mobile phase=using acetonitrile water with citric acid buffer
Detector=UV at 254 nm wavelength
Flow rate=1.5 ml per min.
Column temperature=25° C.
The percentage of SAMe after storage at the specified temperature was determined using the content of SAMe after storage and the content of SAMe before storage, i.e., initial content of SAMe in the corresponding salt using the following equation: [formula]

SAMe Residual Ratio (accelerated storage period 30 days): 97.5% | SAMe Residual Ratio (accelerated storage period 60 days): 95.2% | SAMe Residual Ratio (accelerated storage period 90 days): 94.5%
Substance: SAMe disulfate catechol-3,5-disulfonate or its sodium salt [Salt II]

Source: US6649753B2, “Stable salts of S-adenosyl-L-methionine (SAMe) and the process for their preparation” (Orchid Chemicals & Pharmaceuticals Ltd., priority 2001, dated 2003)
